# Experiments:
# [1] = tested on: primary adult cortical astrocytes; test: Astrocyte scratch assay (injury model); format: cell-based, mouse; conditions: astrocytes from 6-month-old female mice, 48 hours after scratching
# Protocol: FIGS. 5A-5C: 5c(i) reduces injury size. Primary adult cortical astrocytes from 6-month-old female mice were scratched to form the injury model and immediately after were incubated with 5c(i) for 48 hours (5A). Graph represents mean t SEM. Images represent the 5B) Vehicle and 5C) 5000 nM 5c(i) treated groups stained with Phalloidin. Linear regression was conducted to determine statistical significance. N=10. Scale bar=500 μm.
# For neuronal cultures, the neuron enriched fraction was added onto plastic bottom (Greiner-Bio, 781091) plates and incubated inside a 5% C02 incubator at 37° C. for 2 days. Pharmaceutical agents were added at the time of cell plating. For astrocyte cultures, the glia fraction was added onto plastic bottom (Greiner-Bio, 781091) plates and incubated inside a 5% C02 incubator at 37° C. for 5 days for 100% confluency to be reached. Then, the astrocytes were scratched to form the scratch assay model and the pharmaceutical agents were added at the time of scratching. 10,000 cells were plated per well with 0.056 cm^2 growth area for both the neuronal and glia cultures.
# Cell cultures were fixed with 4% paraformaldehyde (PFA, 15 min) after the completion of the respective in vitro experiment. […]
# [2] = Blood-brain and blood-spinal cord barrier penetration after IP administration; format: in vivo; conditions: uninjured mouse, IP 60 mg/kg, 1 hour, intrinsic fluorescence
# Protocol: FIG. 6: 5c(i) penetrates the blood-brain and -spinal cord barriers. 4-month-old uninjured female mouse was IP administered 60 mg/kg 5c(i). The mouse was euthanized 1 hour after 5c(i) administration and perfused with PFA. The spinal cord was dissected and sectioned sagittal at 25 μm and stained with NeuN and DAPI. The brain was dissected and sectioned coronal at 50 μm and stained with GFAP and DAPI. 5c(i) was identified through its intrinsic fluorescence. Scale bar=100 μm.
# This is highly significant as most drugs cannot penetrate the central nervous system (CNS), resulting in very costly late-stage failures in CNS drug development^94. 5c(i) therefore in specific embodiments can cross the BBB and target the brain, such as through IP administration, for indications relating to brain function, such as AD and stroke. 5c(i) has even higher potential for penetrating the CNS after SCI when permeability is increased^95-97.
# [3] = tested on: primary adult cortical neurons; test: Primary adult cortical neuron culture: survival and neurite outgrowth; format: cell-based, mouse; conditions: adult neurons from 6-month-old mice, 2 days with 5c(i)
# Protocol: FIGS. 3A-3C: 5c(i) augments neuritogenesis and neuron survival. Primary adult cortical neurons from 6-month-old female mice were treated with 5c(i) for 2 days. 5c(i) was added at the time of cell plating. Cells were fixed 2 days after cell plating. 3A) Graph represents mean±SEM of percent change in neurite outgrowth per cell and number of surviving neurons. Representative images of 3B) Vehicle and 3C) 5000 nM 5c(i) treated groups. Linear regression was conducted to determine statistical significance. […] Scale bar=50 μm.
# For all cell culture experiments, primary neural cells were extracted from the cortices of […] mice. The extraction, purification, and separation of neurons and glia was conducted as previously before^58 covered under patent application WO2022266431, incorporated by reference herein in its entirety. Briefly, after euthanization of mice, the brains were microdissected and placed in papain filled GENTLEMACS™ (tissue dissector) C Tubes followed by cell dissociation using the GENTLEMACS™ (tissue dissector) Octo Dissociator with Heaters with heating cuffs using the GENTLEMACS™ (tissue dissector) Program 37C_ABDK_01 protocol. After protocol completion, the contents were strained through a 70 μm cell strainer, debris and red blood cells were removed, and the remaining solution was labeled with glia specific antibodies. […]
substance,measurement,setting,value
C-DIRG-C BODIPY® (fluorescent dye) [5c(i)],artificial wound closure,[1],closing at an expedited rate
same,penetration of blood-brain barrier (BBB),[2],easily penetrate
same,penetration of blood-spinal cord barrier (BSCB),[2],easily penetrate
same,increase in neurite outgrowth,[3],42%
same,increase in neuron survival,[3],94%

# Reference: patent US20260042801A1, “COMPOSITIONS AND METHODS FOR DYE-BOUND CYCLIZED PEPTIDES FOR MEDICAL USE” (The Texas A&M University System, priority 2022, published 2026)
